We go through 13 compounds from ChEMBL document CHEMBL1153701, “Synthesis and evaluation of antiallodynic and anticonvulsant activity of novel amide and urea derivatives of valproic acid analogues” (2009).

Active and inactive are the calls of the source. The calls are words filed in the database; no cut-off is given here.

Assay [1] deals with Mus musculus. The assay is described as follows: Neurotoxicity in CF1 mouse assessed as protection against motor impairment at 30 mg/kg, ip after 0.5 hrs by rotarod test. Format: functional, organism-based. Also noted: dose 30 mg/kg.
Assay [2] deals with Mus musculus. The assay is described as follows: Antiepileptic activity in CF1 mouse assessed as inhibition of subcutaneous pentylenetetrazole-induced seizures at 300 mg/kg, ip after 4 hrs. Format: functional, organism-based. Also noted: dose 300 mg/kg.
Assay [3] deals with Mus musculus. The assay is described as follows: Antiepileptic activity in CF1 mouse assessed as inhibition of maximal electroshock-induced seizures at 300 mg/kg, ip after 0.5 hrs. Type of assay: functional, organism-based. Also noted: dose 300 mg/kg.
Assay [4] deals with Mus musculus. The assay is described as follows: Antiepileptic activity in CF1 mouse assessed as inhibition of subcutaneous pentylenetetrazole-induced seizures at 30 mg/kg, ip after 4 hrs. Type of assay: functional, organism-based. Also noted: dose 30 mg/kg.
The test system of assay [5] is Mus musculus. In words: Antiepileptic activity in CF1 mouse assessed as inhibition of maximal electroshock-induced seizures at 30 mg/kg, ip after 0.5 hrs. Format: functional, organism-based. Also noted: dose 30 mg/kg.
Assay [6] deals with Mus musculus. The assay is described as follows: Antiepileptic activity in CF1 mouse assessed as inhibition of maximal electroshock-induced seizures at 100 mg/kg, ip after 0.5 hrs. Format: functional, organism-based. Also noted: dose 100 mg/kg.
For assay [7], the system named is Mus musculus. In words: Antiepileptic activity in CF1 mouse assessed as inhibition of subcutaneous pentylenetetrazole-induced seizures at 30 mg/kg, ip after 0.5 hrs. Type of assay: functional, organism-based. Also noted: dose 30 mg/kg.
Assay [8] concerns Mus musculus. In words: Neurotoxicity in CF1 mouse assessed as protection against motor impairment at 100 mg/kg, ip after 4 hrs by rotarod test. Format: functional, organism-based. Also noted: dose 100 mg/kg.
The test system of assay [9] is Mus musculus. In words: Antiepileptic activity in CF1 mouse assessed as inhibition of subcutaneous pentylenetetrazole-induced seizures at 100 mg/kg, ip after 4 hrs. Also noted: dose 100 mg/kg. Format: functional, organism-based.
Assay [10] has as its system Mus musculus. The assay is described as follows: Antiepileptic activity in CF1 mouse assessed as inhibition of maximal electroshock-induced seizures at 100 mg/kg, ip after 4 hrs. Type of assay: functional, organism-based. Also noted: dose 100 mg/kg.
Assay [11] concerns Mus musculus. In words: Neurotoxicity in CF1 mouse assessed as protection against motor impairment at 100 mg/kg, ip after 0.5 hrs by rotarod test. Type of assay: functional, organism-based. Also noted: dose 100 mg/kg.
Assay [12] has as its system Mus musculus. The assay is described as follows: Neurotoxicity in CF1 mouse assessed as protection against motor impairment at 300 mg/kg, ip after 0.5 hrs by rotarod test. Type of assay: functional, organism-based. Also noted: dose 300 mg/kg.
For assay [13], the system named is Mus musculus. The assay is described as follows: Neurotoxicity in CF1 mouse assessed as protection against motor impairment at 300 mg/kg, ip after 4 hrs by rotarod test. Type of assay: functional, organism-based. Also noted: dose 300 mg/kg.
The subject of assay [14] is Mus musculus. In words: Antiepileptic activity in CF1 mouse assessed as inhibition of subcutaneous pentylenetetrazole-induced seizures at 300 mg/kg, ip after 0.5 hrs. Format: functional, organism-based. Also noted: dose 300 mg/kg.
Assay [15] relates to Rattus norvegicus. The assay is described as follows: Antiallodynic activity in rat assessed as protection against spinal nerve ligation-induced neuropathic pain at 80 mg/kg, ip after 240 mins. Also noted: dose 80 mg/kg. Type of assay: functional, organism-based.
Assay [16] deals with Mus musculus. The assay is described as follows: Antiepileptic activity in CF1 mouse assessed as inhibition of maximal electroshock-induced seizures at 30 mg/kg, ip after 4 hrs. Format: functional, organism-based. Also noted: dose 30 mg/kg.
Assay [17] has as its system Mus musculus. The assay is described as follows: Antiepileptic activity in CF1 mouse assessed as inhibition of maximal electroshock-induced seizures at 300 mg/kg, ip after 4 hrs. Format: functional, organism-based. Also noted: dose 300 mg/kg.
The test system of assay [18] is Mus musculus. The assay is described as follows: Antiepileptic activity in CF1 mouse assessed as inhibition of subcutaneous pentylenetetrazole-induced seizures at 100 mg/kg, ip after 0.5 hrs. Type of assay: functional, organism-based. Also noted: dose 100 mg/kg.
The test system of assay [19] is Mus musculus. The assay is described as follows: Neurotoxicity in CF1 mouse assessed as protection against motor impairment at 30 mg/kg, ip after 4 hrs by rotarod test. Format: functional, organism-based. Also noted: dose 30 mg/kg.
The species entered for assay [20] is Rattus norvegicus. The assay is described as follows: Ratio of ED50 for antiallodynic activity in rat assessed as protection against spinal nerve ligation-induced neuropathic pain to ED50 for antiepileptic activity in rat by maximal electroshock-induced seizures assay. Format: functional.
For assay [21], the system named is Rattus norvegicus. In words: Antiallodynic activity in ip dosed rat assessed as protection against spinal nerve ligation-induced neuropathic pain. Format: functional.
Assay [22] deals with Mus musculus. The assay is described as follows: Antiepileptic activity in ip dosed CF1 mouse assessed as inhibition of maximal electroshock-induced seizures. Type of assay: functional.
The test system of assay [23] is Rattus norvegicus. The assay is described as follows: Antiallodynic activity in rat assessed as protection against spinal nerve ligation-induced neuropathic pain at 80 mg/kg, ip after 180 mins. Format: functional, organism-based. Also noted: dose 80 mg/kg.
Assay [24] deals with Rattus norvegicus. In words: Antiallodynic activity in rat assessed as protection against spinal nerve ligation-induced neuropathic pain at 80 mg/kg, ip after 60 mins. Format: functional, organism-based. Also noted: dose 80 mg/kg.
The subject of assay [25] is Rattus norvegicus. The assay is described as follows: Antiallodynic activity in rat assessed as protection against spinal nerve ligation-induced neuropathic pain at 80 mg/kg, ip after 120 mins. Also noted: dose 80 mg/kg. Format: functional, organism-based.
In assay [26] the test system is Rattus norvegicus. In words: Antiallodynic activity in rat assessed as protection against spinal nerve ligation-induced neuropathic pain at 80 mg/kg, ip after 30 mins. Also noted: dose 80 mg/kg. Format: functional, organism-based.

With `CCCC(CC(C)C)C(N)=O` (configuration not stated), the result in the assay with Mus musculus [1], with Mus musculus [2], in the assay on Mus musculus [4], with Mus musculus [5], with Mus musculus [6] and in the assay on Mus musculus [7] was inactive. In addition, the outcome with Mus musculus [8], with Mus musculus [9], in the assay on Mus musculus [10], with Mus musculus [11], in the assay with Mus musculus [13] and in the assay with Rattus norvegicus [15] was inactive. Also, the result in the assay with Mus musculus [16], with Mus musculus [17], in the assay with Mus musculus [18] and in the assay with Mus musculus [19] was inactive. In addition, the outcome with Mus musculus [3], in the assay on Mus musculus [12] and in the assay on Mus musculus [14] was Active.

Take `CCC(C)C(CC)C(N)=O` (configuration not stated) [VALNOCTAMIDE]: in the assay listed under Rattus norvegicus [20], the ratio is 0.56. The 50% effective dose (ED50) in the assay with Rattus norvegicus [21] was 52 mg/kg; with Mus musculus [22] it was 29 mg/kg.

For `CC(C)(C)CC(N)=O`, the result in the assay on Mus musculus [1], in the assay with Mus musculus [2], in the assay on Mus musculus [3], with Mus musculus [4], with Mus musculus [5] and in the assay with Mus musculus [6] was inactive. For the same compound, the result with Mus musculus [7], in the assay with Mus musculus [8], in the assay on Mus musculus [10], with Mus musculus [11], with Rattus norvegicus [23] and in the assay on Rattus norvegicus [24] was inactive. In addition, the result in the assay on Mus musculus [14], in the assay on Rattus norvegicus [25], in the assay on Rattus norvegicus [26], with Rattus norvegicus [15], in the assay with Mus musculus [16] and in the assay with Mus musculus [17] was inactive. Also, the outcome in the assay with Mus musculus [18] and in the assay on Mus musculus [19] was inactive.

On to `CCC(CC)C(N)=O`, for which the outcome in the assay on Mus musculus [1], in the assay with Mus musculus [2], in the assay with Mus musculus [4], with Mus musculus [5], in the assay with Mus musculus [7] and with Mus musculus [8] was inactive. The result with Mus musculus [9], in the assay on Mus musculus [10], in the assay on Mus musculus [12], in the assay on Mus musculus [13], in the assay with Rattus norvegicus [24] and with Mus musculus [14] was inactive. The outcome in the assay with Rattus norvegicus [26], in the assay on Mus musculus [16], in the assay with Mus musculus [17], with Mus musculus [18] and with Mus musculus [19] was inactive. Besides, in the assay on Mus musculus [3], the outcome was Active.

With `CCCC(C)C(N)=O` (configuration not stated), the outcome in the assay with Mus musculus [1], in the assay with Mus musculus [2], in the assay on Mus musculus [3], in the assay on Mus musculus [4], in the assay with Mus musculus [5] and with Mus musculus [6] was inactive. Also, the result in the assay on Mus musculus [7], with Mus musculus [8], in the assay with Mus musculus [9], with Mus musculus [10], in the assay with Mus musculus [11] and with Mus musculus [12] was inactive. Besides, the outcome in the assay on Mus musculus [13], with Rattus norvegicus [24], in the assay on Mus musculus [14], in the assay with Rattus norvegicus [26], with Mus musculus [16] and with Mus musculus [17] was inactive. For the same compound, the result in the assay on Mus musculus [18] and with Mus musculus [19] was inactive.

Turning to `CC(C)C(C(N)=O)C(C)C`, in the assay filed under Rattus norvegicus [20], the ratio is 0.88. For the same compound, the ED50 amounted to 58 mg/kg in the assay on Rattus norvegicus [21] and 51 mg/kg with Mus musculus [22].

With `CC(C)(C)C(N)=O`, the outcome with Mus musculus [1], in the assay with Mus musculus [2], in the assay with Mus musculus [3], in the assay on Mus musculus [4], with Mus musculus [5] and in the assay on Mus musculus [6] was inactive. The result in the assay on Mus musculus [7], with Mus musculus [8], with Mus musculus [9], in the assay on Mus musculus [10], in the assay on Mus musculus [11] and in the assay on Mus musculus [12] was inactive. Moreover, the result in the assay with Mus musculus [13], in the assay with Mus musculus [14], in the assay on Rattus norvegicus [15], with Mus musculus [16], in the assay with Mus musculus [17] and in the assay with Mus musculus [19] was inactive.

On to `CNC(=O)CC(C)(C)C`, for which the outcome in the assay on Mus musculus [1], in the assay with Mus musculus [2], in the assay on Mus musculus [3], in the assay with Mus musculus [4], in the assay with Mus musculus [5] and with Mus musculus [6] was inactive. Besides, the result with Mus musculus [7], in the assay on Mus musculus [8], in the assay with Mus musculus [9], in the assay with Mus musculus [10], with Mus musculus [11] and with Rattus norvegicus [23] was inactive. Also, the result in the assay with Mus musculus [12], with Mus musculus [13], in the assay with Rattus norvegicus [24], in the assay with Mus musculus [14], with Rattus norvegicus [25] and with Rattus norvegicus [26] was inactive. For the same compound, the outcome with Rattus norvegicus [15], with Mus musculus [16], with Mus musculus [17], in the assay with Mus musculus [18] and with Mus musculus [19] was inactive.

Take `CC(C)(C)C(=O)NC(N)=O`: the result in the assay on Rattus norvegicus [26] and in the assay on Rattus norvegicus [15] was inactive.

Take `CCCC(CCC)C(N)=O` [VALPROMIDE]: in the assay filed under Rattus norvegicus [20], the ratio is 0.52. Besides, the values for the ED50 in the assay with Rattus norvegicus [21] and in the assay with Mus musculus [22] were 61 mg/kg and 32 mg/kg, respectively.

For `CCC(C)C(N)=O` (configuration not stated), the result in the assay on Mus musculus [1], in the assay with Mus musculus [2], in the assay on Mus musculus [3], with Mus musculus [4], in the assay on Mus musculus [5] and in the assay on Mus musculus [6] was inactive. Further, the outcome with Mus musculus [7], in the assay with Mus musculus [8], with Mus musculus [9], in the assay on Mus musculus [10], with Mus musculus [11] and in the assay on Mus musculus [12] was inactive. For the same compound, the result with Mus musculus [13], in the assay on Rattus norvegicus [24], with Mus musculus [14], in the assay with Rattus norvegicus [25], in the assay on Rattus norvegicus [26] and in the assay with Mus musculus [16] was inactive. Also, the outcome with Mus musculus [17], in the assay with Mus musculus [18] and with Mus musculus [19] was inactive.

For the compound `CCC(C)C(C(N)=O)C(C)C` (configuration not stated), the result in the assay on Mus musculus [1], with Mus musculus [2], with Mus musculus [4], with Mus musculus [5], in the assay with Mus musculus [7] and in the assay with Mus musculus [8] was inactive. Besides, the outcome with Mus musculus [9], in the assay on Mus musculus [10], in the assay with Mus musculus [16], in the assay on Mus musculus [17] and in the assay on Mus musculus [19] was inactive. Further, the result in the assay with Mus musculus [3], in the assay with Mus musculus [6], with Mus musculus [11], with Mus musculus [12], in the assay on Mus musculus [14] and in the assay with Mus musculus [18] was Active. Also, the ED50 with Rattus norvegicus [21] amounted to 50 mg/kg. Moreover, the ED50 entry in the assay on Mus musculus [22] was “inactive”.

In the case of `CCCC(C(N)=O)C(C)C` (configuration not stated), the ratio in the assay filed under Rattus norvegicus [20] stood at 0.52. Besides, the figures for the ED50 in the assay with Rattus norvegicus [21] and in the assay with Mus musculus [22] were 42 mg/kg and 22 mg/kg, respectively.
